Measurements from ChEMBL document CHEMBL1201862, “PubChem BioAssay data set” (2004).
Calls of active or inactive are those of the source.

Legend:
HEK293 [1] = experiment: cells; conditions: Homo sapiens
Tumor necrosis factor = Tumor necrosis factor (Homo sapiens, UniProt P01375); experiment: analog potency on TNFa NF-kB signaling – cell-based, revised, SAR follow-up (AID 2337); assay type: functional
[2] = molecular target: T1, Nucleotide-binding oligomerization domain-containing protein 1 (Homo sapiens, UniProt Q9Y239); experiment: blockers of NOD1 pathway activity – revised, SAR follow-up (AID 2333); assay type: functional
T1 sequence (Q9Y239 whole entry): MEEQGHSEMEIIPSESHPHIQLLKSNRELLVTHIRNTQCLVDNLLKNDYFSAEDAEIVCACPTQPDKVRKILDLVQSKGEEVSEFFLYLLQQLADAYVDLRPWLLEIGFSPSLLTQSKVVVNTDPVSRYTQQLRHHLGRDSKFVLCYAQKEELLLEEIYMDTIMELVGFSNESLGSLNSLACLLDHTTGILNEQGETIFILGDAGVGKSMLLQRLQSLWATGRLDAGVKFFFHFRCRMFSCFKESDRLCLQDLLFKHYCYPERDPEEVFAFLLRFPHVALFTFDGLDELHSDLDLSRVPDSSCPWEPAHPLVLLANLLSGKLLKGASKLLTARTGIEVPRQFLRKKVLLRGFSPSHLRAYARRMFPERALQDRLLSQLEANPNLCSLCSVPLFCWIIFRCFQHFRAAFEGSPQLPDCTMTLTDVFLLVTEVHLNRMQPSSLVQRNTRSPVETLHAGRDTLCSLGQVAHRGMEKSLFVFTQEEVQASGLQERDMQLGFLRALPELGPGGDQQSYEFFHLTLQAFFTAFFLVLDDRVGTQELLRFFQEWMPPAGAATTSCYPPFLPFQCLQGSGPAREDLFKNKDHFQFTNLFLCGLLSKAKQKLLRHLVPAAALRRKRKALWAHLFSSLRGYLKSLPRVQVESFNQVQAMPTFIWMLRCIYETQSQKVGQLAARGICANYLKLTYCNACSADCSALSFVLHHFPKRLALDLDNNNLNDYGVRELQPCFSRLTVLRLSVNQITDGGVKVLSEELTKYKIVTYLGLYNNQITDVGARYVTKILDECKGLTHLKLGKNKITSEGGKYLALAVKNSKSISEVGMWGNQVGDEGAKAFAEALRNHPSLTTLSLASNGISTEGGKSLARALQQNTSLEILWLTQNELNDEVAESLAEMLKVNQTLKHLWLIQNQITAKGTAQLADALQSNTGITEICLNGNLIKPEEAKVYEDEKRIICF

[3] = molecular target: T2, Nucleotide-binding oligomerization domain-containing protein 2 (Homo sapiens, UniProt Q9HC29); experiment: PubChem AID 2334; assay type: functional
[4] = molecular target: T3, Heat shock factor protein 1 (Mus musculus, UniProt P38532); experiment: decrease of HSF1-responsive luciferase luminescence – cell-based, NIH3T3, dose retest, confirmation (AID 2382); assay type: functional;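 further: NIH3T3 fibroblasts with HSF1-driven luciferase reporter stressed by proteasome inhibitor MG132; luminescence from HSF1-driven luciferase expression after 8 hours of MG132 stress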
T3 sequence (P38532 whole entry): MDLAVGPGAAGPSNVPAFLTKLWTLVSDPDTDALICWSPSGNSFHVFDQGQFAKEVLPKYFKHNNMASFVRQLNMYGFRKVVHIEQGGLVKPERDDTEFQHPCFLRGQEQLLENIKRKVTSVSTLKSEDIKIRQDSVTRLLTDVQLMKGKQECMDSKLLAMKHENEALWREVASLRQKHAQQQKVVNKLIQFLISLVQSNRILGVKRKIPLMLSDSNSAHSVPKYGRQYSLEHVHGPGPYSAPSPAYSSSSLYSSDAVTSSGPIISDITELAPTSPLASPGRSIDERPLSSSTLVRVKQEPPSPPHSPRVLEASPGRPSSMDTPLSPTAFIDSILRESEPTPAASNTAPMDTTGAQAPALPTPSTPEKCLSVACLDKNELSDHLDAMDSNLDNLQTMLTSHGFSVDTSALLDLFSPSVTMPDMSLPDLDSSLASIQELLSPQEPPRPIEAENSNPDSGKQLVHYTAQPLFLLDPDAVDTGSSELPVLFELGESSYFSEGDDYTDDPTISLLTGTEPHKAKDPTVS

H9c2 = experiment: cells; assay type: functional, cell-based; conditions: Rattus norvegicus, H9c2, Myocardium;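 further: confirmatory concentration-response retest of ultra-high-throughput screening hits for modulation of myocardial damage; cell death induced by hydrogen peroxide oxidative stress; compound pretreatment for 60 min then peroxide exposure for 2 h; potency is for protecting the cells against peroxide damage rather than for killing them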
Hexokinase HKDC1 = molecular target: T4, Hexokinase HKDC1 (Homo sapiens, UniProt Q2TB90); experiment: inhibition of HKDC1 glucose phosphorylation – biochemical, W721R variant, dose response (AID 504729); assay type: functional
T4 sequence (Q2TB90 whole entry): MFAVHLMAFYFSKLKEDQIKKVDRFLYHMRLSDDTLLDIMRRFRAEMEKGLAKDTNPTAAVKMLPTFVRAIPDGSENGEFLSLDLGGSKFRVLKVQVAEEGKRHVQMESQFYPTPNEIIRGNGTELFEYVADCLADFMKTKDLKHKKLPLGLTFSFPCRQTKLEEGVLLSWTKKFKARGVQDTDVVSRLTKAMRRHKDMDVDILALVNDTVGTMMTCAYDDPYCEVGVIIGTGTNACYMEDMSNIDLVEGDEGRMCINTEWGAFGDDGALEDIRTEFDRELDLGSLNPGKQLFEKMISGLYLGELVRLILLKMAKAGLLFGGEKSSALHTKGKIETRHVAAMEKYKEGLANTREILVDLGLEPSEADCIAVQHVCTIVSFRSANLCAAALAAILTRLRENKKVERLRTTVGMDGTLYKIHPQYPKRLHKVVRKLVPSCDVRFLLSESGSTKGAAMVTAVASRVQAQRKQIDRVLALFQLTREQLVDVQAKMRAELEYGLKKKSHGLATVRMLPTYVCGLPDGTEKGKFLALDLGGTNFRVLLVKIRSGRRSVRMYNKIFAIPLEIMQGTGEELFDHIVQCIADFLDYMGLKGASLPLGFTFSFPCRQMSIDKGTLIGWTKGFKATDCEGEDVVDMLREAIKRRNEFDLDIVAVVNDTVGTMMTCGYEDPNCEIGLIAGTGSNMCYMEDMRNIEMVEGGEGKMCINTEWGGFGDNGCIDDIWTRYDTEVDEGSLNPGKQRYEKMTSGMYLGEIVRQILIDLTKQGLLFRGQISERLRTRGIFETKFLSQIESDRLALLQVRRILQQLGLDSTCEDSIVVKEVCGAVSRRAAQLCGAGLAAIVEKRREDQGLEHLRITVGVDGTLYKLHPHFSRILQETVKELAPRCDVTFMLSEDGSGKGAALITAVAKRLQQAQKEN

HEK293 [5] = experiment: cells; assay type: functional, cell-based; conditions: Homo sapiens
HEK293 [6] = experiment: inhibition of NOD1-driven NF-kB reporter – cell-based, luminescence, uHTS, primary screen (AID 1578); assay type: functional; conditions: Homo sapiens
HEK293 [7] = experiment: NOD2 signaling inhibitors in MDP-stimulated cells, cell-based, uHTS, luminescence (AID 2001); assay type: functional; conditions: Homo sapiens
HEK293 [8] = experiment: cells; assay type: functional, cell-based; conditions: Homo sapiens; remark: listed apart in the source
Nonstructural protein 1 = Nonstructural protein 1 (Influenza A virus, UniProt Q194T2); assay type: functional, Influenza A virus (A/California/07/2009(H1N1))
[9] = molecular target: T2, Nucleotide-binding oligomerization domain-containing protein 2; experiment: inhibition of NOD2-driven NF-kB reporter – cell-based, luminescence, uHTS, HEK293 (AID 1566); assay type: functional
HEK293 [10] = experiment: cells; assay type: functional, cell-based; conditions: Homo sapiens; remark: listed apart in the source
[11] = molecular target: T5, Carboxy-terminal domain RNA polymerase II polypeptide A small phosphatase 1 (Homo sapiens, UniProt Q9GZU7); experiment: CTDSP1 inhibitors, concentration-response, biochemical, absorbance readout, ultra-high-throughput screen actives (AID 540297); assay type: functional
T5 sequence (Q9GZU7 whole entry): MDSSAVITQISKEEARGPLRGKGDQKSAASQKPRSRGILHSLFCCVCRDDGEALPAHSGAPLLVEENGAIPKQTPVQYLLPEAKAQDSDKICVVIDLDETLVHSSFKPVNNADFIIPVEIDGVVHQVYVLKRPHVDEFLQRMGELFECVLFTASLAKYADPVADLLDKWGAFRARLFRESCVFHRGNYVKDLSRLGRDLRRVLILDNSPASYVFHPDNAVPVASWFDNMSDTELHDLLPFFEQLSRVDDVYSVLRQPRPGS

Estrogen receptor beta [12] = molecular target: T6, Estrogen receptor beta (Homo sapiens, UniProt Q92731);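 further: recombinant ER-beta bound to coactivator SRC1 peptide in presence of estradiol agonist; inhibitors block coactivator peptide binding and lower the FRET signal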
Estrogen receptor beta [13] = molecular target: T6, Estrogen receptor beta; experiment: blockers of SRC-3 recruitment to ERβ – biochemical, ELISA, streptavidin-HRP readout, orthogonal assay, confirmation (AID 1060)
Bcl-2-like protein 10 = molecular target: T7, Bcl-2-like protein 10 (Homo sapiens, UniProt Q9HD36); experiment: Bcl-B/TR3 peptide binding disruption – biochemical, fluorescence polarization, FITC-TR3 peptide, selectivity assay for Bfl-1 inhibitor project, primary screen (AID 748);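 further: fluorescence polarization from a fluorescein-labelled TR3 peptide binding purified Bcl-B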
T7 sequence (Q9HD36 whole entry): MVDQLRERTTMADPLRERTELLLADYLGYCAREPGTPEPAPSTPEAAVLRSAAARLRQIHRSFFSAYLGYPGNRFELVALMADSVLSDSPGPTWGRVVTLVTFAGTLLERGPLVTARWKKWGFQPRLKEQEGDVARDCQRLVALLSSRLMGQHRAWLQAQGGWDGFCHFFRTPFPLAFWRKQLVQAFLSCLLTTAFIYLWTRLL

Chain of Tumor necrosis factor (P01375 whole entry, the tested form may be a part): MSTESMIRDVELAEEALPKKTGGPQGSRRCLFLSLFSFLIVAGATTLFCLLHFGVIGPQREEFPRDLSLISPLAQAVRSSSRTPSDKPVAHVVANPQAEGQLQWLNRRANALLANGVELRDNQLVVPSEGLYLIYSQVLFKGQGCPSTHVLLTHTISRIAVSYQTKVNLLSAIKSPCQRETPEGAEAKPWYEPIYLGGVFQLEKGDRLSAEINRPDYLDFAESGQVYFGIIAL
T2 sequence (Q9HC29 whole entry, the tested form may be a part): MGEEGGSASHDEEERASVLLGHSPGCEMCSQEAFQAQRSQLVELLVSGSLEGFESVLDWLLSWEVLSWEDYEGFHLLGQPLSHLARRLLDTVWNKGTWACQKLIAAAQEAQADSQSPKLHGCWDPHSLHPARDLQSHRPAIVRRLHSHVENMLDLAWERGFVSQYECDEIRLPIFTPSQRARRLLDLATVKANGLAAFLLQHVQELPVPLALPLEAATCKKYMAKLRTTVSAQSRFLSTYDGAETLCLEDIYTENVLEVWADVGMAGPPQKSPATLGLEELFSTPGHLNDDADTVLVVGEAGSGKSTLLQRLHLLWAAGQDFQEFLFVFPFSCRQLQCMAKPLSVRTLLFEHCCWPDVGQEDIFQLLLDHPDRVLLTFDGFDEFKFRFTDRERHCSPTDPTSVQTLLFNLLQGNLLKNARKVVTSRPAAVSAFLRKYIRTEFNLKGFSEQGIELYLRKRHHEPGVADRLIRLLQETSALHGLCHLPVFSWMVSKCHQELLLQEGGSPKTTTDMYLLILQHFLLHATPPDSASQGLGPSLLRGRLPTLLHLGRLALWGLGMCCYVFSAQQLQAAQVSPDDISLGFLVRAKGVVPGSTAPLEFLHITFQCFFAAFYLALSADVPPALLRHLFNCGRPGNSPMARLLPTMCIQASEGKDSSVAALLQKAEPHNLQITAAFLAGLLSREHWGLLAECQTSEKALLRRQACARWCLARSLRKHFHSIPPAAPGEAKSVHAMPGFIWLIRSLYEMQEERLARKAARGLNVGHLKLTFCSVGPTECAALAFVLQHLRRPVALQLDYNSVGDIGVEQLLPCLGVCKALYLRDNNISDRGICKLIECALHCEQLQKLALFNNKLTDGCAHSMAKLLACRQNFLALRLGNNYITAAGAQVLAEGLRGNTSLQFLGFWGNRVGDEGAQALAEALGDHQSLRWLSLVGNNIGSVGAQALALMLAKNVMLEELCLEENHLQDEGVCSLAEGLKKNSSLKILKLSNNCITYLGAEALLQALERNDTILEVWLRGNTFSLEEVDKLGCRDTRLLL
T6 sequence (Q92731 whole entry): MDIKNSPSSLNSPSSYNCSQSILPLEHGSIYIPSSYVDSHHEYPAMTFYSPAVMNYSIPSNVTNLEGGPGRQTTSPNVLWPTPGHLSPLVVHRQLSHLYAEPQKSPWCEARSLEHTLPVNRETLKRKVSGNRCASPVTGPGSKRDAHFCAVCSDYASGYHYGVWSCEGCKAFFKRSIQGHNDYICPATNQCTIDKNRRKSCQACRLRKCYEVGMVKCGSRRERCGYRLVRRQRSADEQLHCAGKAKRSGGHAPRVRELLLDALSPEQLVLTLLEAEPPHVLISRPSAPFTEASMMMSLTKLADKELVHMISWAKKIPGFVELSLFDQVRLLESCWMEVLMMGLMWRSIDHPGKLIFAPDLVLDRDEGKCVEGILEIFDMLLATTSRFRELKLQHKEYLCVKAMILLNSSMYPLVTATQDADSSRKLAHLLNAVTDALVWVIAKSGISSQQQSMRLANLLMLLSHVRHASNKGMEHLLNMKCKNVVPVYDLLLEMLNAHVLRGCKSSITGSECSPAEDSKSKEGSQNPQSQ
Chain of Nonstructural protein 1 (Q194T2 whole entry, the tested form may be a part): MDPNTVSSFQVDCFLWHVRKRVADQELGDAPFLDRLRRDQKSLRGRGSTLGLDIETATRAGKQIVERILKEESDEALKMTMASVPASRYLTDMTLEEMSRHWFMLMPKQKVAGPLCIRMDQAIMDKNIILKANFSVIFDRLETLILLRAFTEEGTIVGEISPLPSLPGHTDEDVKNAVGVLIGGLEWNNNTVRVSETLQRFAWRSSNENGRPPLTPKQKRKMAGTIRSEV

Structure (SMILES): O=C(Nc1ccc(Cl)cc1)c1ccc(CCN2CCc3ccccc3C2)cc1
- IC50 (HEK293 [1]): > 20 µM (inactive)
- IC50 (Tumor necrosis factor): > 20 µM (inactive)
- IC50 [2]: > 20 µM (inactive)
- IC50 [3]: > 20 µM (inactive)

Structure (SMILES): CCOc1ccccc1Nc1nnc(SCc2nnc(-c3cc(OC)c(OC)c(OC)c3)o2)s1
- EC50 [4]: 21.7 µM (active)
- IC50 (H9c2): > 79 µM (inactive)
- IC50 (Hexokinase HKDC1): 18.8 µM (active)

Structure (SMILES): N#CC(c1ccccc1)c1ccc2c(C(F)(F)F)cc(C(F)(F)F)nc2n1 (stereo unspecified)
- IC50 (HEK293 [5]): > 20 µM (inactive)
- EC50 (HEK293 [6]): 4.36 µM (active)
- IC50 (HEK293 [7]): > 20 µM (inactive)
- IC50 (HEK293 [8]): > 20 µM (inactive)
- IC50 (HEK293 [1]): > 20 µM (inactive)
- IC50 (Nonstructural protein 1): 21.3 µM (active)
- EC50 [9]: 13.4 µM (active)
- IC50 (Tumor necrosis factor): 5.88 µM (active)
- IC50 (HEK293 [10]): 15.4 µM (active)
- IC50 [2]: 3.71 µM (active)
- IC50 [3]: 3.99 µM (active)

Structure (SMILES): Cc1cc(C(=O)NC2CCCc3c2cnn3-c2ccccc2F)n(C)n1 (stereo unspecified)
- IC50 (HEK293 [1]): > 20 µM (inactive)
- IC50 (Tumor necrosis factor): > 20 µM (inactive)
- IC50 [2]: 0.146 µM (active)
- IC50 [3]: > 20 µM (inactive)

Structure (SMILES): O=C(c1cc2c(s1)CCC2)N1CCN(c2ccccc2)CC1
- IC50 [11]: 22.4 µM (active)
- IC50 (Estrogen receptor beta [12]): 3.87 µM (active)
- IC50 (Estrogen receptor beta [13]): > 50 µM (not active)
- IC50 (Bcl-2-like protein 10): 36.3 µM (active)
